Reference: patent publication US5358937A, “Glycosyl phospholipid derivatives of nucleosides and their use as medicines” (priority 1989, dated 1994)
Values joined by “and” are separate entries in the source; they are usually repeats but may differ in a detail not shown here. Identical values can stand only once. Like-named read-outs stand apart in the source and are kept apart here.

Assays:
[1] = test system: HIV virus; viral reverse transcriptase; assay: inhibition of viral replication by microassay of the enzymatic activity of the viral reverse transcriptase in CEM culture supernatants; type: cell-based; set-up: unit not given here
[2] = in vitro; settings: human, cem-c113 cells
[3] = test system: HIV virus (isolate LAV1-BRU); assay: inhibition of the cytopathogenic effect (CPE) of the HIV virus toward a continuous line of T4 lymphocytes by colorimetric assay with MTT; type: cell-based
[4] = HPLC assay of AZT in the brain of mice after oral administration; type: in vivo, Swiss mouse; settings: for Phosphodiester detected by HPLC per gram of brain, mean (offset figure): AZT equivalent micromol per mouse: CT 6715 0.94, CT 6651 0.68; for Phosphodiester detected by HPLC per gram of brain, mean (offset figure) / Phosphodiester detected by HPLC per gram of brain, individual value: CT 7624 0.90; for Phosphodiester detected by HPLC per gram of brain, individual value: AZT equivalent micromol per mouse: CT 6715, CT 7626 0.94, CT 6651, CT 7627 0.68, 60 min
Procedure: The assays are conducted on the Swiss mouse.
The compounds are dissolved in distilled water (or suspended in distilled water) before being administered by gavage; the assays are performed by administering each compound to 3 mice. The control consists of 3 mice receiving the equivalent of the vehicle, i.e. the same volume of distilled water as the treated mice. The brains are removed 1 hour after garage, homogenized in an acetonitrile-water (3/1) mixture, centrifuged and the supernatant is taken for the HPLC assay.
In a preliminary trial, favourable experimental conditions for the assays of the different compounds by HPLC are determined.
In the table which follows, each line corresponds to an assay series.

[5] = 31P-NMR study of the interactions between the phosphotriesters and model membranes (transmembrane transport)
[6] = test system: HIV virus (isolate LAV1-BRU); assay: selectivity index / protection index (CD50/ED50 ratio); type: cell-based; settings: D7
Source text: Determination of the selectivity index
The higher the difference between the CD50 and the ED50, the more useful will be the product. This difference is quantified by the selectivity index (the CD50/ED50 ratio).

[7] = Human immunodeficiency virus 1, CEM-c113, read-out: ED50 (protective dose 50%), D7 of culture, CEM-C113 cells
[8] = Human immunodeficiency virus 1, CEM-c113, read-out: ED50 (protective dose 50%), D11 of culture, CEM-C113 cells
[9] = Human immunodeficiency virus 1, CEM-c113, read-out: ED50 (protective dose 50%), D19 of culture, CEM-C113 cells
[10] = Human immunodeficiency virus 1, CEM-c113, read-out: ED50 (protective dose 50%), D22 of culture, CEM-C113 cells
[11] = 25 mg/kg oral, 1 hour, CT 7625 0.64
[12] = 25 mg/kg oral, 1 hour, CT 7625 0.64, 25 mg/kg

SMILES	reverse transcriptase activity in culture supernatant ([1]; 0.2 uM, D7)	reverse transcriptase activity in culture supernatant ([1]; 0.2 uM, D11)	reverse transcriptase activity in culture supernatant ([1]; 0.2 uM, D18)	reverse transcriptase activity in culture supernatant ([1]; 0.2 uM, D19)	reverse transcriptase activity in culture supernatant ([1]; 0.2 uM, D22)	reverse transcriptase activity in culture supernatant ([1]; 0.2 uM, D26)	reverse transcriptase activity in culture supernatant ([1]; 1 uM, D7)	reverse transcriptase activity in culture supernatant ([1]; 1 uM, D11)	reverse transcriptase activity in culture supernatant ([1]; 1 uM, D18)	reverse transcriptase activity in culture supernatant ([1]; 1 uM, D19)	reverse transcriptase activity in culture supernatant ([1]; 1 uM, D22)	reverse transcriptase activity in culture supernatant ([1]; 1 uM, D26)	CC50 at 168 h [2] [nM]	CC50 at 264 h [2] [nM]	CC50 at 456 h [2] [nM]	CC50 at 528 h [2] [nM]	EC50 [3, 7] [nM]	EC50 [3, 8] [nM]	EC50 [3, 9] [nM]	EC50 [3, 10] [nM]	other results
Cc1cn([C@H]2C[C@H](N=[N+]=[N-])[C@@H](COP(=O)(O)OCCO[C@H]3O[C@H](CO)[C@@H](O)[C@H](O)[C@@H]3O)O2)c(=O)[nH]c1=O [CT 7624, 1ethoxy D-mannosyl 5'-(3'-azido) thymidinyl phosphate]	4400	2800	2600	24000	27000	70000	2800	1900	2200	12000	26000	55000	25000	> 25000	> 25000	> 25000	< 200	< 200	< 200	800	reverse transcriptase activity in culture supernatant ([1]; 5 uM, D7): 1670; reverse transcriptase activity in culture supernatant ([1]; 5 uM, D11): 1003; reverse transcriptase activity in culture supernatant ([1]; 5 uM, D18): 852; reverse transcriptase activity in culture supernatant ([1]; 5 uM, D19): 2700; reverse transcriptase activity in culture supernatant ([1]; 5 uM, D22): 5500; reverse transcriptase activity in culture supernatant ([1]; 5 uM, D26): 42000; reverse transcriptase activity in culture supernatant ([1]; 25 uM, D7): 1204; reverse transcriptase activity in culture supernatant ([1]; 25 uM, D11): 372; reverse transcriptase activity in culture supernatant ([1]; 25 uM, D18): 304; reverse transcriptase activity in culture supernatant ([1]; 25 uM, D19): 2100; reverse transcriptase activity in culture supernatant ([1]; 25 uM, D22): 500; reverse transcriptase activity in culture supernatant ([1]; 25 uM, D26): 1700; Phosphodiester detected by HPLC per gram of brain, mean (offset figure) [4, 11]: 2.31 µg; Phosphodiester detected by HPLC per gram of brain, individual value [4, 12]: 0.92 µg and 3.70 µg
CCCCCCCCCCCCCCCCOP(=O)(OCCO[C@H]1O[C@H](CO)[C@@H](O)[C@H](O)[C@@H]1O)OC[C@H]1O[C@@H](n2cc(C)c(=O)[nH]c2=O)C[C@@H]1N=[N+]=[N-] (stereo partly drawn) [CT 7625, 1-ethoxy D-mannosyl hexadecyl 5'-(3'-azido) thymidinyl phosphate]	3900	2900	2400	25000	52000	61000	6000	6000	5500	47000	48000	64000	20000	28000	3400	24000	< 200	1000	> 1000	> 1000	interaction with / location in unilamellar vesicles (in words) [5]: found in the intravesicular aqueous phase; Phosphotriester detected by HPLC per gram of brain, individual value ([4]; 25 mg/kg oral, 1 hour, AZT equivalent micromol per mouse: CT 6651, CT 7627 0.68, CT 7625 0.64): 0 µg; Phosphodiester detected by HPLC per gram of brain, mean (offset figure) [4, 11]: 2.34 µg; Phosphodiester detected by HPLC per gram of brain, individual value [4, 12]: 1.17 µg and 3.51 µg
Cc1cn([C@H]2C[C@H](N=[N+]=[N-])[C@@H](COP(=O)(O)OC[C@H]3OC(O)[C@@H](O)[C@@H](O)[C@@H]3O)O2)c(=O)[nH]c1=O (stereo partly drawn) [CT 7626, 6-D-mannosyl-5'(3'-azido) thymidinyl phosphate]	3400	3000	1700	12000	27000	85000	2700	1300	1200	5000	15000	50000	> 25000	> 25000	24000	24000	< 200	200	200	600	reverse transcriptase activity in culture supernatant ([1]; 5 uM, D7): 1500; reverse transcriptase activity in culture supernatant ([1]; 5 uM, D11): 1000; reverse transcriptase activity in culture supernatant ([1]; 5 uM, D18): 1300; reverse transcriptase activity in culture supernatant ([1]; 5 uM, D19): 8000; reverse transcriptase activity in culture supernatant ([1]; 5 uM, D22): 12000; reverse transcriptase activity in culture supernatant ([1]; 5 uM, D26): 100000; reverse transcriptase activity in culture supernatant ([1]; 25 uM, D7): 1100; reverse transcriptase activity in culture supernatant ([1]; 25 uM, D11): 700; reverse transcriptase activity in culture supernatant ([1]; 25 uM, D18): 900; reverse transcriptase activity in culture supernatant ([1]; 25 uM, D19): 2200; reverse transcriptase activity in culture supernatant ([1]; 25 uM, D22): 900; reverse transcriptase activity in culture supernatant ([1]; 25 uM, D26): 900; concentration at 1 h ([4]; mouse, brain, po, 25 mg/kg, read-out: Phosphodiester detected by HPLC per gram of brain, individual value): 2050 ng/g
Nc1ccn([C@H]2CC[C@@H](CO)O2)c(=O)n1 [ddC, dideoxycytidine, reference compound]													7000	400	< 200	< 200	< 200				PROTECTION INDICES (P.I.), CD50/ED50 [6]: > 35
Cc1cn([C@H]2CC[C@@H](CO)O2)c(=O)[nH]c1=O [ddT, 2', 3'-dideoxy thymidine, reference compound]							3000	1500	750	1200	350	600	> 25000	< 25000	> 25000	> 25000	< 200	700	800	> 25000	reverse transcriptase activity in culture supernatant ([1]; 5 uM, D7): 5000; reverse transcriptase activity in culture supernatant ([1]; 5 uM, D11): 2000; reverse transcriptase activity in culture supernatant ([1]; 5 uM, D18): 1400; reverse transcriptase activity in culture supernatant ([1]; 5 uM, D19): 5000; reverse transcriptase activity in culture supernatant ([1]; 5 uM, D22): 2100; reverse transcriptase activity in culture supernatant ([1]; 5 uM, D26): 5000; reverse transcriptase activity in culture supernatant ([1]; 25 uM, D7): 2500; reverse transcriptase activity in culture supernatant ([1]; 25 uM, D11): 1000; reverse transcriptase activity in culture supernatant ([1]; 25 uM, D18): 800; reverse transcriptase activity in culture supernatant ([1]; 25 uM, D19): 7000; reverse transcriptase activity in culture supernatant ([1]; 25 uM, D22): 4000; reverse transcriptase activity in culture supernatant ([1]; 25 uM, D26): 5000
